Data on 1 compound can be found in patent US12691143B2, “Method for treating cancer” (priority 2020, dated 2026).

Test [1] has as its system bladder cancer cell lines. Kind of test: In vitro drug sensitivity assay / crystal violet staining, cell line panel. It counts as cell-based. The note with it: most bladder cancer cell lines. On the procedure:
(§1) Cells were seeded in either 96-well (5,000 cells/well) or 24-well (20,000 cells/well) plates. The following day, irofulven and cisplatin stock solutions were serially diluted in media and added to cells. After 48 to 72 hours, media was removed and CellTiter-Glo® reagent (Promega; Madison, WI) was added. Plates were scanned using a luminescence microplate reader (BioTek). Survival at each drug concentration was plotted as a percentage of survival in drug-free media with error bars representing the standard deviation of at least three experiments.
(§2) For crystal violet imaging experiments, cells were seeded in 6-well plates (100,000-200,000 cells/well) with 15 nM siRNA transfection mixture (as detailed above). At 24 hours, fresh media containing irofulven or PBS was added and the cells were incubated for an additional 72 hours. Cells were then fixed in formalin solution for 30 minutes and stained with crystal violet prepared in equal volumes of methanol and water. Excess crystal violet was removed by washing with PBS, and plates were then dried and imaged.

Test [2] deals with non-tumor cell lines with a TC-NER or common NER pathway gene defect. To be noted: cited from earlier work.
The test system of test [3] is MDA-MB-468 breast cancer cell line (NER deficient, ERCC4 silenced). Kind of test: In vitro drug sensitivity assay, parental vs ERCC4-complemented line. The note with it: NER-deficient parental MDA-MB-468 compared with ERCC4-complemented counterpart. It counts as cell-based. An excerpt: (§3) Bladder cancer cell lines were purchased from ATCC. The KE1 bladder cancer cell line is a derivative of KU19-19 in which an ERCC2 T484 mutation has been introduced by CRISPR/Cas9 gene editing as previously described (6). The MDA-MB-468 breast cancer cell line and its ERCC4-complemented derivative have been previously described (35). Small interfering RNAs (siRNAs) targeting specific NER genes as well as a non-targeting siRNA (siNTC) were purchased from Integrated DNA Technologies Inc. (Coralville, IA, USA; see Table 9 for sequences). Cells were seeded in 6-well plates and grown to 50% confluency. A transfection mixture containing siRNA diluted to a final concentration of 30 nM in Opti-MEM media containing Lipofectamine 3000 (Life Technologies; Carlsbad, CA) was then added to cells. After 48 hours, cells were trypsinized and re-aliquoted to separate wells and transfected with 15 nM siRNA for 24 hours immediately prior to viability assays performed as described below. […]
(§4) Cells were seeded in either 96-well (5,000 cells/well) or 24-well (20,000 cells/well) plates. […] Plates were scanned using a luminescence microplate reader (BioTek). […]

In test [4] the test system is SC14 (SW1710 derivative with ERCC2 P463L mutation). Kind of test: In vitro drug sensitivity assay. It counts as cell-based. The note with it: ERCC2-mutant SC14 line compared with SW1710.
Description: as §3, §4

The subject of the next test is KU19-19 cells. Kind of test: Irofulven sensitivity after siRNA depletion of NER genes. It counts as cell-based.
Description: as §3, §4

Test [5] concerns SW1710 bladder cancer cell line. Kind of test: In vitro drug sensitivity assay / crystal violet staining. It counts as cell-based. The note with it: SW1710 compared with other bladder cancer cell lines. On the procedure: as §1, §2
In test [6] the test system is KU19-19 bladder cancer cell line (NER-proficient). Briefly: In vitro drug sensitivity assay (CellTiter-Glo). The note with it: NER-proficient KU19-19; 48 to 72 hours. It counts as cell-based. As to the method: as §1
(In general: In ATP-based viability assays light output follows the ATP content of the culture.)

“Also recorded” adds a separate entry of the source.

For `CC1=C(CO)C2=C(C)C3(CC3)[C@@](C)(O)C(=O)C2=C1` [irofulven], the irofulven sensitivity result in test [1] is reported as “resistant; also recorded: minimal sensitivity”; in test [3] it was “significantly more sensitive; also recorded: dramatically higher irofulven sensitivity”; in test [5] it was “much higher sensitivity”. In addition, the “toxicity to cells from patients with inactivating mutations in a TC-NER or common NER gene” value in test [2] was “highly toxic”. In addition, the drug sensitivity entry in test [4] is on record as “significantly increased sensitivity”. Also, the “irofulven sensitivity after gene depletion” value in the test on KU19-19 cells (siRNA depletion of GG-NER gene DDB2) is “minimal impact”; in the test with KU19-19 cells (siRNA depletion of TC-NER gene ERCC6 or common NER gene ERCC3), “significantly higher irofulven sensitivity; also recorded: sufficient to increase irofulven sensitivity”. In addition, the “drug sensitivity (survival as percentage of drug-free media)” value in test [6] is “minimal sensitivity”.
